Data on eleven compounds can be found in PubChem BioAssay AID624167 (Sanford-Burnham Center for Chemical Genomics, 2012).

As a reminder, the IC50 is the point on the concentration scale where inhibition reaches its midpoint.

The test system of test [1] is Rat fibroblasts (CREF). As to the kind of experiment: inhibition of PEG-3 promoter-driven reporter – cell-based, HeLa, luciferase, CREF/GAPDH counter-screen panel, dose response (AID 624167). As to conditions: CREF/GAPDH counter-screens. For orientation: Counterscreens check selectivity or assay interference.
Test in test [2]: as above
As to conditions: CREF/GAPDH counter-screens; GAPDH; mean of runs.

In test [3] the test system is PEG-3. The description is as above. As to conditions: HeLa PEG-Prom luciferase reporter, overnight, CREF/GAPDH counter-screens. A general note: A reporter such as luciferase makes a cellular process visible.
Test [4] addresses PEG-3 (UniProt Q6IN02). The test is described as above. As to conditions: HeLa PEG-Prom luciferase reporter, overnight, CREF/GAPDH counter-screens, mean of runs.
Test [5] relates to GAPDH. Described as above. As to conditions: CREF/GAPDH counter-screens.
[6] abbreviates: run 1, dose range 1, individual replicate IC50 per panel.
The mark [7] stands for this setting: run 2, dose range 1, individual replicate IC50 per panel.

Calls of active or inactive are those of the source.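 How the source made its calls: active means mean IC50 for reducing PEG3 promoter reporter signal at or below a set limit, with IC50 above the limit in both counter screens; inactive means the rest, including counter screen hits.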

PEG-3 (UniProt Q6IN02), sequence (Q6IN02 whole entry, looked up): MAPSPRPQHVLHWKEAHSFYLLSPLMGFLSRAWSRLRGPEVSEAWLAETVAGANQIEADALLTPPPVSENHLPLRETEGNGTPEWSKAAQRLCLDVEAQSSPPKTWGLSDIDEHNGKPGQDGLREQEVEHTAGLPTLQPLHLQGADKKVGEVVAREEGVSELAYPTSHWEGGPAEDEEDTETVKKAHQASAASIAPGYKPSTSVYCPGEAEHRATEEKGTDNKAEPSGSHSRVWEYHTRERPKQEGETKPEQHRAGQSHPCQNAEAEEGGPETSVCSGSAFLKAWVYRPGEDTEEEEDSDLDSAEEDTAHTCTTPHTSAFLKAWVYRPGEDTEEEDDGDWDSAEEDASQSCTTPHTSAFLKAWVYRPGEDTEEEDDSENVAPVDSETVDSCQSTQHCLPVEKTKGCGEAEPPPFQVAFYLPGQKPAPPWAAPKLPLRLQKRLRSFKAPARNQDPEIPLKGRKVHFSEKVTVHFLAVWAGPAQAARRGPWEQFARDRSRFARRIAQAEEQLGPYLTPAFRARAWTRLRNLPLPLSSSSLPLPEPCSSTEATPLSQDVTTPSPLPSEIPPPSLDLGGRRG

With `C(=N\Nc1ccc2ccccc2n1)/c1ccc2c(c1)OCCO2`, the IC50 in test [1] (mean of runs) was 51.2 µM (inactive); in test [1] (setting [6]), 2.43 µM; in test [1] (setting [7]) it was more than 100 µM; in test [2], 3.75 µM; in test [3] (setting [6]), 5.86 µM; in test [3] (setting [7]), 8.13 µM. Further, the IC50 in test [4] was 6.99 µM; in test [5] (setting [6]), 6.78 µM; in test [5] (setting [7]) it was 0.719 µM.

Turning to `CCSc1nc2ccccc2n1C(=O)/C=C\c1ccc(OC)c(OC)c1`, the IC50 in test [1] (mean of runs) is 72.8 µM (inactive); in test [1] (setting [6]), 45.7 µM; in test [1] (setting [7]), more than 100 µM; in test [2], 14.6 µM; in test [3] (setting [6]) it was 4.86 µM; in test [3] (setting [7]), 6.08 µM. In addition, the IC50 in test [4] was 5.47 µM; in test [5] (setting [6]), 14.2 µM; in test [5] (setting [7]), 15 µM.

On to `CC1=CC2C(C(O)CC3(C)C2CC(C)C32OCOC23COCO3)C2(C)C/C(=C\O)C(=O)C=C12` (centres undefined), for which the IC50 is 8.5 µM in test [1] (mean of runs); 7.69 µM in test [1] (setting [6]); 9.3 µM in test [1] (setting [7]); 9.16 µM in test [2]; 7.13 µM in test [3] (setting [6]); 5.01 µM in test [3] (setting [7]). Besides, the values for the IC50 in test [4], in test [5] (setting [6]) and in test [5] (setting [7]) were 6.07 µM, 7.69 µM and 10.6 µM, respectively.

In the case of `COC1CC(C)C(OC)c2cc(O)cc(c2O)NC(=O)C(C)=CC=CC(C)C(OC(N)=O)C(C)=CC(C)C1OC` (centres undefined), the IC50 in test [1] (mean of runs) was > 100 µM (inactive); in test [1] (setting [6]), more than 100 µM; in test [1] (setting [7]), more than 100 µM; in test [3] (setting [6]), 22.2 µM; in test [3] (setting [7]), 5.41 µM; in test [4] it was 13.8 µM. Also, the half-maximal inhibitory concentration (IC50) in test [5] (setting [6]) was found to be 45.1 µM; in test [5] (setting [7]) it was 45.7 µM. Further, in test [2], the IC50 entry was “inactive”.

Take `O=C(CCn1cnc(-c2ccccc2)c1-c1ccccc1)N/N=C/c1ccccc1O`: the IC50 in test [1] (mean of runs) was 63.2 µM (inactive); in test [1] (setting [6]) it was more than 100 µM; in test [1] (setting [7]) it was 26.4 µM; in test [3] (setting [6]) it was 5.32 µM; in test [3] (setting [7]), 4.93 µM; in test [4], 5.13 µM. Also, the IC50 was 49.7 µM in test [5] (setting [6]) and more than 100 µM in test [5] (setting [7]). The IC50 entry in test [2] is “inactive”.

`CCCC(=O)NC(c1ccc(N(C)C)cc1)c1ccc2cccnc2c1O` (centres undefined): the IC50 in test [1] (mean of runs) is 72.3 µM (inactive); in test [1] (setting [6]), more than 100 µM; in test [1] (setting [7]) it was 44.7 µM; in test [2] it was > 100 µM (inactive); in test [3] (setting [6]), 2.74 µM; in test [3] (setting [7]), 0.758 µM. The IC50 in test [4] is 1.75 µM; in test [5] (setting [6]) it was more than 100 µM; in test [5] (setting [7]) it was more than 100 µM.

Turning to `COc1ccc2c(c1)c(=Cc1ccc(N(C)C)cc1)c1cc(-c3ccccc3)[n+](C)n12`, the IC50 in test [1] (mean of runs) was 26.9 µM; in test [1] (setting [6]) it was 24.8 µM; in test [1] (setting [7]), 29.1 µM; in test [2], 7.04 µM; in test [3] (setting [6]), 3.17 µM; in test [3] (setting [7]), 1.37 µM. The half-inhibitory concentration (IC50) in test [4] is 2.27 µM; in test [5] (setting [6]) it was 6.61 µM; in test [5] (setting [7]) it was 7.46 µM.

For `O=C(O)c1ccc(N/N=C/c2ccc3nccnc3c2)cc1`, the IC50 was > 100 µM (inactive) in test [1] (mean of runs); more than 100 µM in test [1] (setting [6]); more than 100 µM in test [1] (setting [7]); 1.38 µM in test [2]; 1.26 µM in test [3] (setting [6]); 1.36 µM in test [3] (setting [7]). Besides, the concentration for half-maximal inhibition (IC50) in test [4] was 1.31 µM; in test [5] (setting [6]), 1.36 µM; in test [5] (setting [7]), 1.41 µM.

For the compound `Cc1nc(C)c(C(=O)N/N=C/c2cc(Br)ccc2O)s1`, the IC50 in test [1] (mean of runs) is 64.9 µM (inactive); in test [1] (setting [6]), 52.3 µM; in test [1] (setting [7]), 77.5 µM; in test [2], > 100 µM (inactive); in test [3] (setting [6]), 5.65 µM; in test [3] (setting [7]), more than 100 µM. For the same compound, the concentration for half-maximal inhibition (IC50) in test [5] (setting [6]) and in test [5] (setting [7]) was more than 100 µM throughout. The IC50 result in test [4] is “inactive”.

Regarding `CC(/C=C/c1ccccc1)=N/NC(=O)c1cc([N+](=O)[O-])cc([N+](=O)[O-])c1`, the IC50 in test [1] (mean of runs) is 57.3 µM (inactive); in test [1] (setting [6]), 14.5 µM; in test [1] (setting [7]), more than 100 µM; in test [3] (setting [6]) it was more than 100 µM; in test [3] (setting [7]), 3.58 µM; in test [5] (setting [6]) it was more than 100 µM. Further, the IC50 in test [5] (setting [7]) was found to be 9.02 µM. The IC50 result in test [2] and in test [4] was “inactive” each time.

For `Cc1cc(C)c2sc(NNC(=O)c3ccc(S(=O)(=O)N4CCc5ccccc5C4)cc3)nc2c1`, the IC50 in test [1] (mean of runs) is > 100 µM (inactive); in test [1] (setting [6]) it was more than 100 µM; in test [1] (setting [7]), more than 100 µM; in test [2], 20.9 µM; in test [3] (setting [6]), 0.939 µM; in test [3] (setting [7]), 2.04 µM. Moreover, the IC50 was 1.49 µM in test [4], 10.4 µM in test [5] (setting [6]) and 31.5 µM in test [5] (setting [7]).
